Experimental findings from PMC11242993, “Evaluation of the Therapeutic Potential of Sulfonyl Urea Derivatives as Soluble Epoxide Hydrolase (sEH) Inhibitors” (Molecules, 2024) are described below.

A short description of series [1]: Plasma protein binding (equilibrium dialysis), mouse. The format is in vitro ADME. Conditions: for fraction unbound at 5 h, 1 μM: plasma (non-diluted), pH 7.4, read-out: Plasma Protein Binding Mouse % of Bound Comp (converted). On the procedure:
(§1) The assay was performed in a multiple-use 96-well dialysis unit (HTD96b dialyzer). Each individual well unit consisted of 2 chambers separated by a vertically aligned dialysis membrane of predetermined pore size (MWCO 12–14 kDa). An amount of 120 μL of non-diluted plasma spiked with the compound (1 μM, final DMSO concentration 1%) was added to one chamber, and the same volume of PBS buffer with pH 7.4 was added to the other chamber. The HTD96b dialyzer was covered with adhesive sealing film and incubated at 37 °C and shaken at 100 rpm for 5 h. For sample preparation, an aliquot of the content of each chamber was mixed with the same volume of the blank opposite matrix. To define the non-specific loss of the compound during this assay, a standard solution was created by mixing an aliquot of spiked plasma with a blank buffer without dialysis. Two aliquots of the standard solution were incubated at 37 °C and shaken at 100 rpm for 5 h (recovery samples). The other two aliquots were immediately diluted with acetonitrile and stored at 4 °C until LC–MS/MS analysis (stability samples). All samples were diluted 5-fold with 100% methanol with subsequent plasma protein sedimentation by centrifuging at 6000 rpm for 5 min. Supernatants were analyzed using the HPLC system coupled with a tandem mass spectrometer.

Series [2] can be described thus: Plasma protein binding (equilibrium dialysis), human. The format is in vitro ADME. Conditions: for fraction unbound at 5 h, 1 μM: plasma (non-diluted), pH 7.4, read-out: Plasma Protein Binding Human % of Bound Comp. The procedure:
as §1

In another series the target is T1, mouse recombinant sEH (Mus musculus, UniProt P34914).
T1 sequence (P34914 1-554): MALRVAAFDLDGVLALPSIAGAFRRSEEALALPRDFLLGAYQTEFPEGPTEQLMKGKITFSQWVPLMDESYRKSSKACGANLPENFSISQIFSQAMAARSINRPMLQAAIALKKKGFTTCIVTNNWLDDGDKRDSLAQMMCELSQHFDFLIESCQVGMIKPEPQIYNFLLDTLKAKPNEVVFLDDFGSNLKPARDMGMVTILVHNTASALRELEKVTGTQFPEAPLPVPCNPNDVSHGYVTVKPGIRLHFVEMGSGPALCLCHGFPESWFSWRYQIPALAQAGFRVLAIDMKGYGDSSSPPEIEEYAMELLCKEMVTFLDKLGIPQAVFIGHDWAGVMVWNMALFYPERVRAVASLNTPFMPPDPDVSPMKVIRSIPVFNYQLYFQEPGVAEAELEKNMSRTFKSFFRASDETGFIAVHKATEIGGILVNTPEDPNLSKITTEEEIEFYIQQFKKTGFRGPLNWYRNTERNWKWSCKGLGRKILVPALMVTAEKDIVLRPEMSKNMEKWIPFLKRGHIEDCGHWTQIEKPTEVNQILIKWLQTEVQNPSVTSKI
Description: Fluorescence-based sEH activity assay (PHOME substrate), mouse enzyme. It counts as biochemical. Conditions: dose-dependent assay; read-out: Mouse sEH Inhibition IC50. On the procedure:
(§2) A fluorescence-based sEH activity assay provided a convenient method for screening human epoxide hydrolase inhibitors. The assay utilized (3-Phenyl-oxiranyl)-acetic acid cyano-(6-methoxy-naphthalen-2-yl)-methyl ester (PHOME) as a substrate. […] The inhibitory function of the compounds on sEH activity was tested as detailed in the product manual from Cayman Chemical. Briefly, 3 mL sEH assay buffer (10×) was diluted with 27 mL HPLC-grade water. This final assay buffer, 25 mM bis-tris (pH 7.0), was used in the assay and for the dilution of the soluble epoxide hydrolase (sEH) enzyme. Amounts of 12 μL each of human and mouse recombinant sEH were thawed on ice. Prior to assaying, 588 μL cold assay buffer was added directly to the enzyme vial. An amount of 190 μL assay buffer and 5 μL solvent (40% DMSO in assay buffer) were added to the background wells. In the 100% initial activity wells, 185 μL assay buffer, 5 μL sEH, and 5 μL solvent were added. In inhibitor wells, 185 μL assay buffer, 5 μL solution of the synthesized compounds, and 5 μL of recombinant enzyme solution were added. To start the reaction, 5 μL of PHOME was added to each well at a final concentration of 0.25 mM. The microwell plate was shaken carefully for 10 s and covered with a plate cover.
(§3) Average fluorescence (AF) of the background wells and 100% initial activity in the wells and of each of the inhibitors were determined. The background AF was subtracted from the 100% initial activity and inhibitor AFs. The % sEH activity is calculated as (inhbitited AF/% 100 initial activity) × 100.
(§4) Multiple concentrations of the inhibitors were tested followed by plotting of the percent activity as a function of inhibitor concentration to determine the IC50 values.

The target in another series is T2, human recombinant sEH (Homo sapiens, UniProt P34913).
T2 construct: purchased Cayman Chemical 10011671
T2 sequence (P34913 1-555): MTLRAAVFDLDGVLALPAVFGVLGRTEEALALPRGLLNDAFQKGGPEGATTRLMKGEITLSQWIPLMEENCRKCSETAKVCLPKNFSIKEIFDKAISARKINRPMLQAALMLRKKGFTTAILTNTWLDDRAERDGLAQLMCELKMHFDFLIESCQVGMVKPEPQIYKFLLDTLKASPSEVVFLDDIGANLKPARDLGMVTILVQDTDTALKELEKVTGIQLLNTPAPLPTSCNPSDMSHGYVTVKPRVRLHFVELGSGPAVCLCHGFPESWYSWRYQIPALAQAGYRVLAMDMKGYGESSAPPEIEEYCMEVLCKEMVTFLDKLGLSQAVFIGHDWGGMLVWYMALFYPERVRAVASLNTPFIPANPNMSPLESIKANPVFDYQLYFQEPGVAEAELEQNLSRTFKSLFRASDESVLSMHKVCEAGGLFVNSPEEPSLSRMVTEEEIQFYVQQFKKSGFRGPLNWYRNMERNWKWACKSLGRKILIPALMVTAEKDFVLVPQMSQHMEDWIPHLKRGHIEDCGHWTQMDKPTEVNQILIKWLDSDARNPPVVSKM
Description: Fluorescence-based sEH activity assay (PHOME substrate), human enzyme. It counts as biochemical. The settings on record: for IC50: dose-dependent assay, read-out: Human sEH Inhibition IC50. On the procedure:
as §2, with “added.” for “added. To start the reaction, 5 μL of PHOME was added to each well at a final concentration of 0.25 mM. The microwell plate was shaken carefully for 10 s and covered with a plate cover.”
as §3, §4

`O=C(NC12CC3CC(CC(C3)C1)C2)NS(=O)(=O)c1ccc(OC(F)(F)F)cc1` [Compound 4f]: in series [1], the “compound recovery/stability in mouse plasma after 5 h incubation (%)” value was determined as 106% and the fraction unbound at 5 h, 1 μM is 0.02. For the same molecule, in series [2], the “compound stability in plasma during dialysis” value is on record as 99% and the fraction unbound at 5 h, 1 μM is less than 0.001. At mouse recombinant sEH, the IC50 came to 290 nM. For the same molecule, on human recombinant sEH, the “Human sEH % Inhibition” value was 96.05% and the IC50 is 1.69 nM.

Consider `O=C(NC12CC3CC(CC(C3)C1)C2)NS(=O)(=O)c1ccc2ccccc2c1` [Compound 4l], for which, in series [1], the “compound recovery/stability in mouse plasma after 5 h incubation (%)” value came out at 88% and the fraction unbound at 5 h, 1 μM is 0.02. Besides, in series [2], the “compound stability in plasma during dialysis” value was found to be 99% and the fraction unbound at 5 h, 1 μM was less than 0.001. On mouse recombinant sEH, the IC50 was determined as 190 nM. In addition, at human recombinant sEH, the “Human sEH % Inhibition” value was determined as 96.79% and the IC50 stood at 1.21 nM.
